From US12377069B2, “Compounds, compositions, methods of using, and methods for preparing compounds” (UNIVERSITY OF LOUISVILLE RESEARCH FOUNDATION, INC., priority 2018, dated 2025) come the findings set out here.

The subject of experiment [1] is C57BL/6 mice. Put plainly: DSS-induced acute colitis. The class given is in vivo, mouse. The settings on record: oral 20 mg/kg on day 4 and 6. Here is the method:
DSS-induced colitis: Acute experimental colitis in mice was induced by giving 3% (w/v) colitis grade DSS (MP Biomedicals) in drinking water for 7 days. Control animal received drinking water without DSS. All colitis group mice were randomly divided into three groups viz. vehicle treated (0.25% Na-CMC), UroA (20 mg/kg/day) and UAS03 (20 mg/kg/day) on the 4th and 6th day of DSS treatment. After 7 days, animals were put back on regular water for a period of 7 days. For chronic DSS colitis model, we used three cycles of 2.0% (w/v) DSS and each DSS cycle consisted or 7 days followed by 10 days of regular water and mice were treated with UroA (20 mg/kg/day) on every 4th and 6th day of DSS cycle.
(§1) Assessment of colitis severity and tissue collection: Mice were evaluated daily for change in body weight, stool consistency and rectal bleeding and score was given and combined to obtained disease activity index (MURTHY et al., (1993) “Treatment of dextran sulfate sodium-induced murine colitis by intracolonic cyclosporin” Dig Dis Sci, Vol. 38, pp. 1722-1734). After euthanasia, the colon was removed and flushed with PBS containing (1 mM PMSF and 0.2 mM sodium orthovanadate). Colon length and colon weight were measured and small parts of colon were excised for myeloperoxidase (MPO) activity and RNA isolation. Tissues for MPO and RNA extraction were snap frozen in liquid nitrogen and stored in −80° C. until further analysis. Tissue for histological examination was stored in 10% phosphate buffered saline formalin. Blood was collected and serum was separated by centrifugation at 3500×g for 15 min. Serum cytokines (IL-6, TNF-α; Biolegend) and chemokines (CXCL1; R&D Systems) levels were measured by ELISA according to manufacturer's instructions.
(§2) In vivo intestinal permeability assay: The gut barrier function was evaluated by in vivo intestinal permeability using FITC-Dextran (MW 4000; FD4, Sigma-Aldrich, USA) (FURUTA et al., (2001) “Hypoxia-inducible factor 1-dependent induction of intestinal trefoil factor protects barrier function during hypoxia” J Exp Med, Vol. 193, pp. 1027-1034). Briefly, mice were orally administered with FITC-dextran (60 mg/100 gm body weight). Mice were fasted for 4 h prior to euthanization. The FITC-dextran concentration in serum was determined using the standard curve of FITC-dextran in serum (excitation, 485 nm; emission, 525 nm; BMG LABTECH).

Experiment [2] relates to AhR. The experiment can be described thus: AhR nuclear translocation. The class given is cell-based, human. The settings on record: HT29, 50 μM. Here is the method: Confocal Imaging: HT29 or CaCo2 or BMDM cells (50,000 cells/well) were plated on to 8-well chambered slides (154534PK; ThermoFisher Scientific) allowed them to grow overnight. The cells were induced with vehicle (0.01% DMSO) or UroA (50 μM) or UAS03 (50 μM) for desired time points and fixed with cold methonol. The AhR or Nrf2 or Cldn4 stained with respective antibodies (1:200 dilution) followed by fluorecently labelled (Alexa flour 594 for AhR and Alexa flour 488 for Nrf2 and Cldn4) secondary ab (1:500 dilution; ThermoFisher Scientific). The nucleus was stained with DAPI (Sigma Aldrich). The confocal images were captured using Nikon AIR confocal microscope using 60× magnification lense with appropriate laser channels.

Experiment [3] relates to MRP2. The experiment can be described thus: MRP2 expression in 5FU-R colon cancer cells. The class given is cell-based. The settings on record: SW-5FUR colon cancer cell lines. Here is the method:
FIG. 43: UroA/UAS03 down regulate drug transporters. (A) Expression of MRP2 is measured by real time PCR upon treating with indicated doses of UroA or UAS03 in SW-5FUR colon cancer cell lines. (B) MRP2 activity is measured using CDCFDA (diacetate ester of 5(6)-carboxy-2′,7′-dichlorofluorescein) transporter assay in SW-FUR colon cancer cell lines upon treating with UroA/USA03.
This could result in increase in intracellular drug concentration leading to increase in cell death/decreased proliferation of drug resistant cancer cells upon treatment with 5FU and UroA/UAS03.

In experiment [4] the test system is C57BL/6 mice. Put plainly: TNBS-induced colitis. It is filed as in vivo, mouse. The settings on record: for H&E analysis of colon sections / TNBS-induced body weight loss / TNBS-induced colon shortening / TNBS-induced downregulation of Cldn4 in colons / colon weight to length ratio / disease activity index (DAI) score / neutrophil infiltration (myeloperoxidase (MPO) activity) / serum inflammatory markers IL-6, TNF-α, CXCL1 and IL-10: oral 20 mg/kg at 12 h intervals; for loss of body weight, single treatment / TNBS-induced colitis, single treatment: single oral treatment at 4 or 20 mg/kg; for TNBS-induced colitis, single treatment: 12 h post TNBS. Here is the method:
2,4,6-Trinitrobenzenesulfonic acid (TNBS)-induced colitis: Male C57BL/6 or Nrf2^−/− mice (6-8 week old age mice) were anesthetized with ketamine/xylazine (100 mg/12.5 mg/kg IP) mixture and administered with single dose of TNBS (2.5 mg/mice; Sigma Aldrich, USA) in 50% ethanol. After administration of TNBS, mice were held upside down for 30-60 sec to ensure proper distribution of TNBS in the colon. Control group received 50% ethanol without TNBS. Mice with TNBS were randomly divided into three groups, viz. vehicle (0.25% sodium carboxymethylcellulose (CMC)), UroA and UAS03. UroA or UAS03 was resuspended in 0.25% sodium-CMC at desired concentrations. The mice were given orally Veh or UroA or UAS03 in 100 μl at desired concentrations (4 or 20 mg/kg/body weight). The treatment started after 12 hours of TNBS administration and every 12 hours thereafter up to 72 hours. The experiment was terminated post 60 h TNBS, where AhR^−/− mice were involved. In some experiments, we treated only once at post 12 h TNBS administration. TNBS administered and control mice were euthanized for tissue and plasma collection after 80 hours of TNBS/ethanol treatment. Mice were examined for colitis phenotype.
as §1, §2
Myeloperoxidase (MPO) activity: The MPO activity in the colons was determined using the following procedure (KIM et al. (2012) “Investigating intestinal inflammation in DSS-induced model of IBD” J Vis Exp, Vol. 60, Article e3678 (6 pages)). Briefly, colon tissue was homogenized in 0.5% (w/v) hexadecyltrimethylammonium bromide (H6269; Sigma-aldrich, USA) in 50 mM PBS, pH 6.0. This homogenate underwent 3 freeze-thaw cycles and 10-15 sec sonication to obtain homogenous suspension. The supernatant from this suspension was collected after centrifiguaton at 13000×g for 20 min at 4° C. The supernatant (10 μl) was then added to 50 mM potassium phosphate buffer (pH 6.0) containing 0.167 mg/ml o-dianisidine (Sigma-Aldrich, USA) and 0.0005% H2O2(Sigma-Aldrich USA) and absorbance was taken at 450 nm (BMG, LABTECH) at 2 min interval. […]

Experiment [5] concerns 5FU resistant (5FUR) colon cancer cell lines. The experiment can be described thus: Cell viability of 5FU resistant colon cancer cell lines. It is filed as cell-based. The settings on record: combination of 5FU.

`Oc1ccc2c(c1)COc1cc(O)ccc1-2` [UAS03, 6H-benzo[c]chromene-3,8-diol]: in experiment [1], the “3% DSS induced acute colitis” value was “protected from 3% DSS induced acute colitis” and the “DAI scores during disease progression” value is on record as “overall decreased DAI scores”. The “nuclear translocation of AhR” value in experiment [2] is “induced the nuclear translocation”. Also, the “expression of drug transporters (MRP2)” value in experiment [3] is given as “reduce the expression”. Further, in experiment [4], the “H&E analysis of colon sections” value is “less tissue damage and inflammation scores”; the “TNBS-induced body weight loss” value was “protected”; the TNBS-induced colon shortening entry is listed as “protected from TNBS-induced colon shortening”; the “TNBS-induced downregulation of Cldn4 in colons” value was “protected from TNBS-induced downregulation of Cldn4”. Further, in experiment [4], the “colon weight to length ratio” value is “reduced weight to length ratio”; the “disease activity index (DAI) score” value is “reduced”; the “neutrophil infiltration (myeloperoxidase (MPO) activity)” value is given as “reduced neutrophil infiltration”; the “serum inflammatory markers IL-6, TNF-α, CXCL1 and IL-10” value is “reduced”. Besides, in experiment [4], the “loss of body weight, single treatment” value is recorded as “did not reach significance” and the “TNBS-induced colitis, single treatment” value is on record as “mitigated TNBS-induced colitis”. For the same compound, the “cell viability of 5FUR colon cancer cell lines, combination with 5FU” value in experiment [5] is recorded as “reduced cell viability”.
As for `O=c1oc2cc(O)ccc2c2ccc(O)cc12` [UroA, 3,8-dihydroxy-6H-dibenzo[b,d]pyran-6-one], in experiment [1], the “3% DSS induced acute colitis” value is given as “protected from 3% DSS induced acute colitis” and the “DAI scores during disease progression” value is listed as “overall decreased DAI scores”. The “nuclear translocation of AhR” value in experiment [2] is “induced the nuclear translocation”. For the same compound, the “expression of drug transporters (MRP2)” value in experiment [3] is “reduce the expression”. For the same compound, in experiment [4], the “H&E analysis of colon sections” value was “less tissue damage and inflammation scores”; the “TNBS-induced body weight loss” value is reported as “protected”; the TNBS-induced colon shortening result is reported as “protected from TNBS-induced colon shortening”; the “TNBS-induced downregulation of Cldn4 in colons” value is recorded as “protected from TNBS-induced downregulation of Cldn4”. For the same compound, in experiment [4], the “colon weight to length ratio” value was “reduced weight to length ratio”; the “disease activity index (DAI) score” value is reported as “reduced”; the “neutrophil infiltration (myeloperoxidase (MPO) activity)” value was “reduced neutrophil infiltration”; the “serum inflammatory markers IL-6, TNF-α, CXCL1 and IL-10” value was “reduced”. Moreover, in experiment [4], the “loss of body weight, single treatment” value is “did not reach significance” and the “TNBS-induced colitis, single treatment” value is recorded as “mitigated TNBS-induced colitis”. In addition, the “cell viability of 5FUR colon cancer cell lines, combination with 5FU” value in experiment [5] is “reduced cell viability”.
